The results in this text go back to patent US11479559B2, “Urea-substituted aromatic ring-linked dioxinoquinoline compounds, preparation method and uses thereof” (BEIJING SCITECH-MQ PHARMACEUTICALS LIMITED, priority 2018, dated 2022).

The structures appear in SMILES notation. pIC50: −log10 of the molar value. Read-outs that look alike come from different tables or passages of the source. Where only a bound is given, the exact number is not on record here.

The term pIC50 denotes the negative decadic logarithm of the IC50, by convention in mol/L.

The target of one assay is RET tyrosine kinase (Homo sapiens (Human), UniProt P07949). Nature of the assay: Assay of small molecular compounds for inhibiting the activity of RET kinase (LANCE TR-FRET). In general terms: In TR-FRET formats the signal depends on donor and acceptor labels being close together.
Chain of RET tyrosine kinase (P07949 29-1114): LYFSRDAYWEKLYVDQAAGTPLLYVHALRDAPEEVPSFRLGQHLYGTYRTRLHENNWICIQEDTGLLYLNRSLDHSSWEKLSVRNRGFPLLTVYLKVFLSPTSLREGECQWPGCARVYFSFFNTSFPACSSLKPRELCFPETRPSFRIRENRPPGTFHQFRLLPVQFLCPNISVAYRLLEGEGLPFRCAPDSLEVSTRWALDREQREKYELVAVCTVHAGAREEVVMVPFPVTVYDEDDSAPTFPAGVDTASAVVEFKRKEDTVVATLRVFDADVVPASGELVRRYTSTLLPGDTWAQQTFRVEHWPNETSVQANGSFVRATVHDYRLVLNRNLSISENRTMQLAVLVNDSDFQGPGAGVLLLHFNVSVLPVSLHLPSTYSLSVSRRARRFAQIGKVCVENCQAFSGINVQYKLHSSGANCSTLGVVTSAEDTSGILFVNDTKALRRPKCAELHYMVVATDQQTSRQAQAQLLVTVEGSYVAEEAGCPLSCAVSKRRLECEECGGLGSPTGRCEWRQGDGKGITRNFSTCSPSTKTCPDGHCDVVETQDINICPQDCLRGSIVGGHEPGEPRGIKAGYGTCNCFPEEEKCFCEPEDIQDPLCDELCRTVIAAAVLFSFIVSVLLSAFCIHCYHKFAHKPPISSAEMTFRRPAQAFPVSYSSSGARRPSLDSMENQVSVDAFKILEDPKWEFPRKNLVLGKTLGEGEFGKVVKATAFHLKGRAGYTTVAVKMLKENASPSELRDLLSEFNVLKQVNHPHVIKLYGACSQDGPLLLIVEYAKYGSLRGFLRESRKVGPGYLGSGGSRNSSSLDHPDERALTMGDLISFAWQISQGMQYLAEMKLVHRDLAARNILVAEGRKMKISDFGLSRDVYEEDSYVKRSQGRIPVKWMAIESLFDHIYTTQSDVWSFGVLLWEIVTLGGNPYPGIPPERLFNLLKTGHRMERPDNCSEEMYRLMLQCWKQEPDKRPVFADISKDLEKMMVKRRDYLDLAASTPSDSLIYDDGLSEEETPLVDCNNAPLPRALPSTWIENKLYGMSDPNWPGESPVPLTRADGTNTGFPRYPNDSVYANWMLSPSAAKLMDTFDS
In another assay the target is VEGFR2 tyrosine kinase (Homo sapiens (Human), UniProt P35968). Briefly: Assay of small molecular compounds for inhibiting the activity of VEGFR-2 kinase (LANCE TR-FRET).
Chain of VEGFR2 tyrosine kinase (P35968 20-1356): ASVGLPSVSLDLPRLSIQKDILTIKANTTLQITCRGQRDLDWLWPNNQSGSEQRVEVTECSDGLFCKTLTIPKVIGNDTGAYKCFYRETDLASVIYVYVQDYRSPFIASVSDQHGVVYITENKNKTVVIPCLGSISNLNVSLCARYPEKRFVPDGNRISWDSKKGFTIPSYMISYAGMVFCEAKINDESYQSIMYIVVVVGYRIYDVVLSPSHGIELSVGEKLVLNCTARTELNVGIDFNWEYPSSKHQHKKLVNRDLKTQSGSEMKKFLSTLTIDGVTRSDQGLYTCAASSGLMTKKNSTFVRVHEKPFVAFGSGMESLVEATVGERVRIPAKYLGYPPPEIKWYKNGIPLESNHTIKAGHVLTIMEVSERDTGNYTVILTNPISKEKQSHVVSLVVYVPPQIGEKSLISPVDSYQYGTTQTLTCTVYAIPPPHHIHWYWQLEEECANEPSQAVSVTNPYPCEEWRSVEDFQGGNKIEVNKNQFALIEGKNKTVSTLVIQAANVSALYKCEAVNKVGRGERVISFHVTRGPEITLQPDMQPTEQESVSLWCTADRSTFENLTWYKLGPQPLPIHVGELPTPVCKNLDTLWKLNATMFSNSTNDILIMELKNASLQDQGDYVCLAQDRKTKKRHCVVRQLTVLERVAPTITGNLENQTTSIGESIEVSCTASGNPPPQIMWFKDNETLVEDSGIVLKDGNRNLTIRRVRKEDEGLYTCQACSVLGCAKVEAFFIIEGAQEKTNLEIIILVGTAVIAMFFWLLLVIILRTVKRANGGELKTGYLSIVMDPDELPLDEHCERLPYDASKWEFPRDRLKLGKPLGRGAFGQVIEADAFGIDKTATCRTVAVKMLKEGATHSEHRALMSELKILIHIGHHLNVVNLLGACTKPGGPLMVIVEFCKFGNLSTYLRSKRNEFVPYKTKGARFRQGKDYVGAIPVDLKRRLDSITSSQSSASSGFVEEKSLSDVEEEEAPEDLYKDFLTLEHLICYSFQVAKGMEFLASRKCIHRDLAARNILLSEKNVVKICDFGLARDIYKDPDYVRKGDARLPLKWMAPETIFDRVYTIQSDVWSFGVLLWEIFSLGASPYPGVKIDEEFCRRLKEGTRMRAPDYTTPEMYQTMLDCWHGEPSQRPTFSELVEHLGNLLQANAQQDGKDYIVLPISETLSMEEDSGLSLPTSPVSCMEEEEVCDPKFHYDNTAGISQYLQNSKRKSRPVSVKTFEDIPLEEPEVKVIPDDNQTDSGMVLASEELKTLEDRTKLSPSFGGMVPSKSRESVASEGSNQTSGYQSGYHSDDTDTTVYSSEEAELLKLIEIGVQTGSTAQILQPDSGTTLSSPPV

Experimental for RET tyrosine kinase: (§1) The assay is based on the LANCE TR-FRET technology of Perkin Elmer Inc., and the assay method is as follows:
(§2) 2.5 μL of the gradient-diluted compounds were taken with a transfer pipette to a 384-well plate.
Addition of enzyme: 5 μL of 2× RET kinase solution (concentration was 0.8 nM) was taken with a transfer pipette to the corresponding reaction well of the 384-well plate, mixed well and pre-reacted at room temperature for 30 minutes.
2.5 μL 4× Ultra ULight™-JAK-1 (Tyr1023) Peptide (concentration was 200 nM)/ATP (concentration was 40 μM) mixture was taken with a transfer pipette to the corresponding reaction well of the 384-well plate.
(§3) The final concentration of DMSO in the reaction system was 4%.
(§4) The mixture was mixed well and then centrifuged and reacted at room temperature in dark for 60 min.
(§5) The 384-well plate was placed into the Envision plate reader and the signal was detected using the appropriate program.
Experimental for VEGFR2 tyrosine kinase: as §1, §2
Addition of enzyme: 5 μL of 2× VEGFR2 kinase solution (concentration was 0.5 nM) was taken with a transfer pipette to the corresponding reaction well of the 384-well plate, mixed well and pre-reacted at room temperature for 30 minutes.
2.5 μL 4× Ultra ULight™-JAK-1 (Tyr1023) Peptide (concentration was 200 nM)/ATP (concentration was 40 μMM) mixture was taken with a transfer pipette to the corresponding reaction well of the 384-well plate.
Negative control: 2.5 μL/well 4× substrate/ATP mixture and 7.5 μL 1× Kinase Assay Buffer were added to the wells of the 384-well plate.
as §3, §4, §5

In the case of `CCNC(=O)Nc1ccc(Oc2ccnc3cc(OCCCN4CCOCC4)c4c(c23)OCCO4)cc1Cl` [Example 86, 1-(2-chloro-4-((5-(3-morpholinopropoxy)-2,3-dihydro-[1,4]dioxino[2,3-f]quinolin-10-yl)oxy)phenyl)-3-ethylurea], the negative-log IC50 (pIC50) against RET tyrosine kinase and against VEGFR2 tyrosine kinase was greater than 7.30 throughout.

As for `CCOc1cc2nccc(Oc3ccc(NC(=O)NC4CC4)c(Cl)c3)c2c2c1OCCO2` [Example 43, 1-(2-chloro-4-((5-ethoxy-2,3-dihydro-[1,4]dioxino[2,3-f]quinolin-10-yl)oxy)phenyl)-3-cyclopropylurea], the pIC50 on RET tyrosine kinase (read-out: RET IC50) and at VEGFR2 tyrosine kinase (read-out: VEGFR-2 IC50) was greater than 7.30 each time.

Turning to `O=C(Nc1ccc(Oc2ccnc3cc(OCC4CC4)c4c(c23)OCCO4)cc1Cl)NC1CC1` [Example 46, 1-(2-chloro-4-((5-(cyclopropylmethoxy)-2,3-dihydro-[1,4]dioxino[2,3-f]quinolin-10-yl)oxy)phenyl)-3-cyclopropylurea], the pIC50 at RET tyrosine kinase (read-out: RET IC50) and at VEGFR2 tyrosine kinase (read-out: VEGFR-2 IC50) was greater than 7.30 in each case.

Consider `COCCCOc1cc2nccc(Oc3ccc(NC(=O)NC4CCC4)c(Cl)c3)c2c2c1OCCO2` [Example 72, 1-(2-chloro-4-((5-(3-methoxypropoxy)-2,3-dihydro-[1,4]dioxino[2,3-f]quinolin-10-yl)oxy)phenyl)-3-cyclobutylurea], for which the pIC50 on RET tyrosine kinase (read-out: RET IC50) and at VEGFR2 tyrosine kinase (read-out: VEGFR-2 IC50) was greater than 7.30 in each case.

Turning to `O=C(Nc1ccc(Oc2ccnc3cc(OCCCN4CCOCC4)c4c(c23)OCCO4)cc1Cl)NC1CCC1` [Example 74, 1-(2-chloro-4-((5-(3-morpholinopropoxy)-2,3-dihydro-[1,4]dioxino[2,3-f]quinolin-10-yl)oxy)phenyl)-3-cyclobutylurea], the negative-log IC50 (pIC50) on RET tyrosine kinase (read-out: RET IC50) and on VEGFR2 tyrosine kinase (read-out: VEGFR-2 IC50) was greater than 7.30 throughout.

On to `CC(C)NC(=O)Nc1ccc(Oc2ccnc3cc(OCCCN4CCOCC4)c4c(c23)OCCO4)cc1Cl` [Example 88, 1-(2-chloro-4-((5-(3-morpholinopropoxy)-2,3-dihydro-[1,4]dioxino[2,3-f]quinolin-10-yl)oxy)phenyl)-3-isopropylurea], for which the negative logarithm of the IC50 (pIC50) at RET tyrosine kinase (read-out: RET IC50) and at VEGFR2 tyrosine kinase (read-out: VEGFR-2 IC50) was greater than 7.30 each time.

In the case of `O=C(Nc1ccc(Oc2ccnc3cc(OCCCN4CCCCC4)c4c(c23)OCCO4)cc1)Nc1ccc(Cl)c(C(F)(F)F)c1` [Example 19, 1-(4-chloro-3-(trifluoromethyl)phenyl)-3-(4-((5-(3-(piperidin-1-yl)propoxy)-2,3-dihydro-[1,4]dioxino[2,3-f]quinolin-10-yl)oxy)phenyl)urea], the negative-log IC50 (pIC50) on VEGFR2 tyrosine kinase (read-out: VEGFR-2 IC50) is greater than 7.30.

On to `CC(C)CNC(=O)Nc1ccc(Oc2ccnc3cc(OCCCN4CCOCC4)c4c(c23)OCCO4)cc1Cl` [Example 89, 1-(2-chloro-4-((5-(3-morpholinopropoxy)-2,3-dihydro-[1,4]dioxino[2,3-f]quinolin-10-yl)oxy)phenyl)-3-isobutylurea], for which the negative logarithm of the IC50 (pIC50) on RET tyrosine kinase (read-out: RET IC50) and at VEGFR2 tyrosine kinase (read-out: VEGFR-2 IC50) was greater than 7.30 in each case.

Turning to `Cc1ccc(C(F)(F)F)cc1NC(=O)Nc1ccc(Oc2ccnc3cc(OCCCN4CCOCC4)c4c(c23)OCCO4)cc1` [Example 96, 1-(2-methyl-5-(trifluoromethyl)phenyl)-3-(4-((5-(3-morpholinopropoxy)-2,3-dihydro-[1,4]dioxino[2,3-f]quinolin-10-yl)oxy)phenyl)urea], the pIC50 on RET tyrosine kinase (read-out: RET IC50) was greater than 7.30; on VEGFR2 tyrosine kinase it was 6.30 to 7.30.

On to `CN(C)CCCCCCOc1cc2nccc(Oc3ccc(NC(=O)Nc4ccc(Cl)c(C(F)(F)F)c4)cc3)c2c2c1OCCO2` [Example 30, 1-(4-chloro-3-(trifluoromethyl)phenyl)-3-(4-((5-((6-(dimethylamino)hexyl)oxy)-2,3-dihydro-[1,4]dioxino[2,3-f]quinolin-10-yl)oxy)phenyl)urea], for which the pIC50 was greater than 7.30 on RET tyrosine kinase (read-out: RET IC50) and 6.30 to 7.30 on VEGFR2 tyrosine kinase.

For `COCCOc1cc2nccc(Oc3ccc(NC(=O)NC4CCC4)c(Cl)c3)c2c2c1OCCO2` [Example 70, 1-(2-chloro-4-((5-(2-methoxyethoxy)-2,3-dihydro-[1,4]dioxino[2,3-f]quinolin-10-yl)oxy)phenyl)-3-cyclobutylurea], the pIC50 at RET tyrosine kinase (read-out: RET IC50) and at VEGFR2 tyrosine kinase (read-out: VEGFR-2 IC50) was greater than 7.30 throughout.

Consider `CC1(O)CCN(CCCOc2cc3nccc(Oc4ccc(NC(=O)NC5CC5)c(Cl)c4)c3c3c2OCCO3)CC1` [Example 60, 1-(2-chloro-4-((5-(3-(4-hydroxy-4-methylpiperidin-1-yl)propoxy)-2,3-dihydro-[1,4]dioxino[2,3-f]quinolin-10-yl)oxy)phenyl)-3-cyclopropylurea], for which the pIC50 at RET tyrosine kinase (read-out: RET IC50) and on VEGFR2 tyrosine kinase (read-out: VEGFR-2 IC50) was greater than 7.30 each time.

Turning to `CC1(C)CCN(CCCOc2cc3nccc(Oc4ccc(NC(=O)NC5CC5)c(Cl)c4)c3c3c2OCCO3)CC1` [Example 59, 1-(2-chloro-4-((5-(3-(4,4-dimethylpiperidin-1-yl)propoxy)-2,3-dihydro-[1,4]dioxino[2,3-f]quinolin-10-yl)oxy)phenyl)-3-cyclopropylurea], the pIC50 on RET tyrosine kinase (read-out: RET IC50) and on VEGFR2 tyrosine kinase (read-out: VEGFR-2 IC50) was greater than 7.30 each time.

For the compound `CCOc1cc2nccc(Oc3ccc(NC(=O)NC4CC4)c(F)c3)c2c2c1OCCO2` [Example 90, 1-cyclopropyl-3-(4-((5-ethoxy-2,3-dihydro-[1,4]dioxino[2,3-f]quinolin-10-yl)oxy)-2-fluorophenyl)urea], the pIC50 at RET tyrosine kinase (read-out: RET IC50) and at VEGFR2 tyrosine kinase (read-out: VEGFR-2 IC50) was greater than 7.30 in each case.

Turning to `O=C(Nc1ccc(Oc2ccnc3cc(OCCCN4CCS(=O)(=O)CC4)c4c(c23)OCCO4)cc1Cl)NC1CC1` [Example 58, 1-(2-chloro-4-((5-(3-(1,1-dioxothiomorpholino)propoxy)-2,3-dihydro-[1,4]dioxino[2,3-f]quinolin-10-yl)oxy)phenyl)-3-cyclopropylurea], the pIC50 at RET tyrosine kinase (read-out: RET IC50) and at VEGFR2 tyrosine kinase (read-out: VEGFR-2 IC50) was greater than 7.30 in each case.

In the case of `O=C(Nc1ccc(Oc2ccnc3cc(OCCCN4CCCC4)c4c(c23)OCCO4)cc1Cl)NC1CC1` [Example 53, 1-(2-chloro-4-((5-(3-(pyrrolidin-1-yl)propoxy)-2,3-dihydro-[1,4]dioxino[2,3-f]quinolin-10-yl)oxy)phenyl)-3-cyclopropylurea], the negative-log IC50 (pIC50) on RET tyrosine kinase (read-out: RET IC50) and at VEGFR2 tyrosine kinase (read-out: VEGFR-2 IC50) was greater than 7.30 in each case.

For the compound `COCCCOc1cc2nccc(Oc3ccc(NC(=O)NC4CCCC4)c(Cl)c3)c2c2c1OCCO2` [Example 73, 1-(2-chloro-4-((5-(3-methoxypropoxy)-2,3-dihydro-[1,4]dioxino[2,3-f]quinolin-10-yl)oxy)phenyl)-3-cyclopentylurea], at RET tyrosine kinase, the negative-log IC50 (pIC50) is 6.30 to 7.30.

As for `O=C(Nc1ccc(Cl)c(C(F)(F)F)c1)Nc1ccc(Oc2ccnc3cc(OCCCN4CCOCC4)c4c(c23)OCCO4)cc1F` [Example 42, 1-(4-chloro-3-(trifluoromethyl)phenyl)-3-(2-fluoro-4-((5-(3-morpholinopropoxy)-2,3-dihydro-[1,4]dioxino[2,3-f]quinolin-10-yl)oxy)phenyl)urea], the pIC50 at RET tyrosine kinase (read-out: RET IC50) is greater than 7.30.

As for `CC(=O)N1CCN(CCCOc2cc3nccc(Oc4ccc(NC(=O)Nc5ccc(Cl)c(C(F)(F)F)c5)cc4)c3c3c2OCCO3)CC1` [Example 22, 1-(4-((5-(3-(4-acetylpiperazin-1-yl)propoxy)-2,3-dihydro-[1,4]dioxino[2,3-f]quinolin-10-yl)oxy)phenyl)-3-(4-chloro-3-(trifluoromethyl)phenyl)urea], the pIC50 on RET tyrosine kinase (read-out: RET IC50) is greater than 7.30.

The compound `COCCCOc1cc2nccc(Oc3ccc(NC(=O)Nc4ccc(Cl)c(C(F)(F)F)c4)c(F)c3)c2c2c1OCCO2` [Example 39, 1-(4-chloro-3-(trifluoromethyl)phenyl)-3-(2-fluoro-4-((5-(3-methoxypropoxy)-2,3-dihydro-[1,4]dioxino[2,3-f]quinolin-10-yl)oxy)phenyl)urea] gave a pIC50 against RET tyrosine kinase of 6.30 to 7.30.

As for `O=C(Nc1ccc(Oc2ccnc3cc(OC4COC4)c4c(c23)OCCO4)cc1)Nc1ccc(Cl)c(C(F)(F)F)c1` [Example 31], the pIC50 at RET tyrosine kinase is 6.30 to 7.30.

At RET tyrosine kinase, `COCCOc1cc2nccc(Oc3ccc(NC(=O)Nc4ccc(Cl)c(C(F)(F)F)c4)c(F)c3)c2c2c1OCCO2` [Example 37, 1-(4-chloro-3-(trifluoromethyl)phenyl)-3-(2-fluoro-4-((5-(2-methoxyethoxy)-2,3-dihydro-[1,4]dioxino[2,3-f]quinolin-10-yl)oxy)phenyl)urea] gave a pIC50 greater than 7.30.

On to `COCCCOc1cc2nccc(Oc3ccc(NC(=O)Nc4cc(C(F)(F)F)ccc4F)cc3)c2c2c1OCCO2` [Example 40, 1-(2-fluoro-5-(trifluoromethyl)phenyl)-3-(4-((5-(3-methoxypropoxy)-2,3-dihydro-[1,4]dioxino[2,3-f]quinolin-10-yl)oxy)phenyl)urea], for which the negative-log IC50 (pIC50) on RET tyrosine kinase (read-out: RET IC50) is greater than 7.30.

In the case of `COCCOc1cc2nccc(Oc3ccc(NC(=O)Nc4ccc(Cl)c(C(F)(F)F)c4)cc3F)c2c2c1OCCO2` [Example 36, 1-(4-chloro-3-(trifluoromethyl)phenyl)-3-(3-fluoro-4-((5-(2-methoxyethoxy)-2,3-dihydro-[1,4]dioxino[2,3-f]quinolin-10-yl)oxy)phenyl)urea], the pIC50 at RET tyrosine kinase (read-out: RET IC50) was greater than 7.30.

On to `O=C(Nc1ccc(Oc2ccnc3cc(OC4COC4)c4c(c23)OCCO4)cc1Cl)NC1CC1` [Example 65, 1-(2-chloro-4-((5-(oxetan-3-yloxy)-2,3-dihydro-[1,4]dioxino[2,3-f]quinolin-10-yl)oxy)phenyl)-3-cyclopropylurea], for which the negative-log IC50 (pIC50) on RET tyrosine kinase (read-out: RET IC50) is greater than 7.30.

The compound `COc1cc2nccc(Oc3ccc(NC(=O)NCC(C)C)c(Cl)c3)c2c2c1OCCO2` [Example 83, 1-(2-chloro-4-((5-methoxy-2,3-dihydro-[1,4]dioxino[2,3-f]quinolin-10-yl)oxy)phenyl)-3-isobutylurea] gave a negative-log IC50 (pIC50) at RET tyrosine kinase of 6.30 to 7.30.

Turning to `CC1(C)CCN(CCCOc2cc3nccc(Oc4ccc(NC(=O)Nc5ccc(Cl)c(C(F)(F)F)c5)cc4)c3c3c2OCCO3)CC1` [Example 24, 1-(4-chloro-3-(trifluoromethyl)phenyl)-3-(4-((5-(3-(4,4-dimethylpiperidin-1-yl)propoxy)-2,3-dihydro-[1,4]dioxino[2,3-f]quinolin-10-yl)oxy)phenyl)urea], the pIC50 at RET tyrosine kinase (read-out: RET IC50) is greater than 7.30.
